Reference: patent US10370379B2, “Compounds and compositions useful for treating disorders related to NTRK” (BLUEPRINT MEDICINES CORPORATION, priority 2015, dated 2019)
Read-outs that look alike come from different tables or passages of the source.

Key:
[1] = test system: KM12 wild type colon carcinoma cell line harboring the TPM3-NTRK1 fusion protein; test: NTRK wild type cellular assay (KM12, CellTiter-Glo); assay type: cell-based; details: for IC50: KM12 wild type cells, 72 hr, CellTiter-Glo; for GI50: NTRK wt cellular, known NTRK inhibitors
Experimental: (§1) NTRK Wild Type and G595R Mutant Cellular Assays Protocol
(§2) KM12 wild type colon carcinoma cell line harboring the TPM3-NTRK1 fusion protein was obtained from the National Cancer Institute (NCI). This line has been previously shown to be dependent upon the NTRK activity derived from the NTRK fusion protein for growth and survival. […] Cells were first plated in 384-well plates at 1000 cells/well in complete media (10% FBS and 1% pen/strep) and incubated overnight at 37° C. Cells were then dosed with test articles at varying concentrations using the Bravo liquid handling system. […] Each compound was run in duplicate per plate. […] 72 hr after dosing, assay plates were developed using CellTiter-Glo (Promega) and resultant luminescence was read on the Envision plate reader. IC50 determinations were calculated using a 4-parameter curve fitting algorithm

[2] = test system: KM12 Cliff (G595R) cell line; test: NTRK G595R mutant cellular assay (KM12 Cliff, CellTiter-Glo); assay type: cell-based; details: for IC50: Homo sapiens, KM12 Cliff (G595R) cells, 72 hr, CellTiter-Glo
Experimental: as §1, §2

[3] = biological target: wild type NTRK1 enzyme (Homo sapiens (Human), UniProt P04629); test: NTRK1 Wild Type Assay at 1 mM ATP; assay type: biochemical
Experimental: NTRK1 Wild Type Assay at 1 mM ATP
The reaction was stopped by the addition of 70 μL of Stop buffer (100 mM HEPES pH 7.5, 0.015% Brij 35, 35 mM EDTA and 0.2% of Coating Reagent 3 (Caliper Lifesciences)). The plate was then read on a Caliper EZReader 2 (protocol settings: −1.7 psi, upstream voltage −500, downstream voltage −3000, post sample sip 35 s).

[4] = wild type NTRK1, 1 mM ATP, read-out: NTRK1 IC50

Chain of wild type NTRK1 enzyme (P04629 33-796): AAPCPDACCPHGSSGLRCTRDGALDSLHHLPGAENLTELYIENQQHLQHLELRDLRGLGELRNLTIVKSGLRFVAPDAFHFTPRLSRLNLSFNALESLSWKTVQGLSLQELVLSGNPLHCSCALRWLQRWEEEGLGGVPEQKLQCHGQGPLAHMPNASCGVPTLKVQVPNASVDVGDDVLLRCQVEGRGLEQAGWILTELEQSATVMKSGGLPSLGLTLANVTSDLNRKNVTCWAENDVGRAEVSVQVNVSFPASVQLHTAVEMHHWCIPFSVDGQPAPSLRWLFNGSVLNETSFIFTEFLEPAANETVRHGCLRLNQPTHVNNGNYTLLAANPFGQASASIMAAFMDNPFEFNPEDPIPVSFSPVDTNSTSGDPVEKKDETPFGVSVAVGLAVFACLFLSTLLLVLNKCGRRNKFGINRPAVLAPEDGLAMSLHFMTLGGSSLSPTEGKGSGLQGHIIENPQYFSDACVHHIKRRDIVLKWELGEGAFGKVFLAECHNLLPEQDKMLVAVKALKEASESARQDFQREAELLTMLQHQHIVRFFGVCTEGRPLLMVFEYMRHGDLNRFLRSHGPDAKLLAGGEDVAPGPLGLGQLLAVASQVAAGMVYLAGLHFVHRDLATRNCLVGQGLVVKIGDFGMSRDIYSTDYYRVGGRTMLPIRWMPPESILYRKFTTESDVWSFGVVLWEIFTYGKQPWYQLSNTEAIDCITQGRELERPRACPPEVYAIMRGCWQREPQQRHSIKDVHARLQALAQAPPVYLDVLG

Compound | IC50 ([1]; Homo sapiens) | IC50 [2] | IC50 [3, 4] | GI50 ([1]; Homo sapiens, KM12) | GI50 [1] | GI50 ([2]; NTRK G595R cellular, known NTRK inhibitors) | IC50 ([3]; NTRK wt, known NTRK inhibitors, read-out: NTRK wt Enzyme Assay IC50)
N#Cc1cnn2ccc(N3C[C@@H](F)C[C@@H]3c3cncc(F)c3)nc12 [Compound 1, 5-((2R,4S)-4-fluoro-2-(5-fluoropyridin-3-yl)pyrrolidin-1-yl)pyrazolo[1,5-a]pyrimidine-3-carbonitrile] | < 10 nM | 10 to 100 nM | < 10 nM |  |  |  | 
N#Cc1cnn2ccc(N3C[C@@H](F)C[C@@H]3c3cc(F)ccc3F)nc12 [Compound 2] | < 10 nM | < 10 nM | < 10 nM |  |  |  | 
N#Cc1cnn2ccc(N3CC(F)(F)C[C@@H]3c3cncc(F)c3)nc12 [Compound 3, (R)-5-(4,4-difluoro-2-(5-fluoropyridin-3-yl)pyrrolidin-1-yl)pyrazolo[1,5-a]pyrimidine-3-carbonitrile] | 10 to 100 nM | 100 to 1000 nM | 10 to 100 nM |  |  |  | 
N#Cc1cnn2cc(F)c(N3C[C@@H](F)C[C@@H]3c3cncc(F)c3)nc12 [Compound 4, 6-fluoro-5-((2R,4S)-4-fluoro-2-(5-fluoropyridin-3-yl)pyrrolidin-1-yl)pyrazolo[1,5-a]pyrimidine-3-carbonitrile] | < 10 nM | < 10 nM | < 10 nM |  |  |  | 
N#Cc1cnn2ccc(N3C[C@@H](C#N)C[C@@H]3c3cc(F)ccc3F)nc12 [Compound 5, 5-((2R,4S)-4-cyano-2-(2,5-difluorophenyl)pyrrolidin-1-yl)pyrazolo[1,5-a]pyrimidine-3-carbonitrile] | 10 to 100 nM | 100 to 1000 nM | 10 to 100 nM |  |  |  | 
N#Cc1cc(F)cc([C@H]2C[C@H](F)CN2c2ccn3ncc(C#N)c3n2)c1 [Compound 6, 5-((2R,4S)-2-(3-cyano-5-fluorophenyl)-4-fluoropyrrolidin-1-yl)pyrazolo[1,5-a]pyrimidine-3-carbonitrile] | < 10 nM | < 10 nM | < 10 nM |  |  |  | 
COc1ncc(F)cc1[C@H]1C[C@H](F)CN1c1ccn2ncc(C#N)c2n1 [Compound 7, 5-((2R,4S)-4-fluoro-2-(5-fluoro-2-methoxypyridin-3-yl)pyrrolidin-1-yl)pyrazolo[1,5-a]pyrimidine-3-carbonitrile] | < 10 nM | < 10 nM | < 10 nM |  |  |  | 
Cn1cc(F)cc([C@H]2C[C@H](F)CN2c2ccn3ncc(C#N)c3n2)c1=O [Compound 8, 5-((2R,4S)-4-fluoro-2-(5-fluoro-1-methyl-2-oxo-1,2-dihydropyridin-3-yl)pyrrolidin-1-yl)pyrazolo[1,5-a]pyrimidine-3-carbonitrile] | 10 to 100 nM | 100 to 1000 nM | 10 to 100 nM |  |  |  | 
N#Cc1cnn2ccc(N3C[C@@H](F)C[C@@H]3c3cc(F)cc(Cl)c3)nc12 [Compound 9] | < 10 nM | < 10 nM | < 10 nM |  |  |  | 
N#Cc1cnn2ccc(N3C[C@@H](F)C[C@@H]3c3cc(F)cnc3Cl)nc12 [Compound 10] | < 10 nM | < 10 nM | < 10 nM |  |  |  | 
N#Cc1cnn2ccc(N3C[C@@H](F)C[C@@H]3c3cc(F)cc(C(N)=O)c3)nc12 [Compound 11] | < 10 nM | 10 to 100 nM | < 10 nM |  |  |  | 
N#Cc1cc(F)cc([C@H]2C[C@H](F)CN2c2nc3c(C#N)cnn3cc2F)c1 [Compound 12] | < 10 nM | < 10 nM | < 10 nM |  |  |  | 
COc1c(F)cc(F)cc1[C@H]1C[C@H](F)CN1c1ccn2ncc(C#N)c2n1 [Compound 13] | < 10 nM | < 10 nM | < 10 nM |  |  |  | 
CC(C)(O)c1cc(F)cc([C@H]2C[C@H](F)CN2c2ccn3ncc(C#N)c3n2)c1 [Compound 14, 5-((2R,4S)-4-fluoro-2-(3-fluoro-5-(2-hydroxypropan-2-yl)phenyl)pyrrolidin-1-yl)pyrazolo[1,5-a]pyrimidine-3-carbonitrile] | 10 to 100 nM | 100 to 1000 nM | 10 to 100 nM |  |  |  | 
N#Cc1cnn2cc(F)c(N3C[C@@H](F)C[C@@H]3c3cc(F)cc(C(N)=O)c3)nc12 [Compound 15] | 10 to 100 nM | 10 to 100 nM | < 10 nM |  |  |  | 
N#Cc1cnn2ccc(N3C[C@@H](F)C[C@@H]3c3cc(F)cc(S(N)(=O)=O)c3)nc12 [Compound 16] | 10 to 100 nM | 10 to 100 nM | < 10 nM |  |  |  | 
N#Cc1cnn2ccc(N3C[C@@H](F)C[C@@H]3c3cc(F)ccc3OC(F)(F)F)nc12 [Compound 17] | < 10 nM | < 10 nM | < 10 nM |  |  |  | 
N#Cc1cnn2ccc(N3C[C@@H](F)C[C@@H]3c3cc(F)cc(C(=O)NCCO)c3)nc12 [Compound 18] | 10 to 100 nM | 10 to 100 nM | 10 to 100 nM |  |  |  | 
N#Cc1cnn2ccc(N3C[C@@H](F)C[C@@H]3c3cc(F)cc(C(=O)NCC4CC4)c3)nc12 [Compound 19] | 10 to 100 nM | 10 to 100 nM | < 10 nM |  |  |  | 
CNC(=O)c1cc(F)cc([C@H]2C[C@H](F)CN2c2ccn3ncc(C#N)c3n2)c1 [Compound 20, 3-((2R,4S)-1-(3-cyanopyrazolo[1,5-a]pyrimidin-5-yl)-4-fluoropyrrolidin-2-yl)-5-fluoro-N-methylbenzamide] | 10 to 100 nM | 10 to 100 nM | 10 to 100 nM |  |  |  | 
CN(C)C(=O)c1cc(F)cc([C@H]2C[C@H](F)CN2c2ccn3ncc(C#N)c3n2)c1 [Compound 21] | 10 to 100 nM | 100 to 1000 nM | 10 to 100 nM |  |  |  | 
N#Cc1cnn2ccc(N3C[C@@H](F)C[C@@H]3c3cc(F)ccc3C(N)=O)nc12 [Compound 22, 2-((2R,4S)-1-(3-cyanopyrazolo[1,5-a]pyrimidin-5-yl)-4-fluoropyrrolidin-2-yl)-4-fluorobenzamide] | 10 to 100 nM | 100 to 1000 nM | 10 to 100 nM |  |  |  | 
C[C@@H](Oc1cc(-c2cnn(C3CCNCC3)c2)cnc1N)c1c(Cl)ccc(F)c1Cl [Crizotinib, reference compound] |  |  |  | 87 nM |  |  | 
CC(C)NC(=O)[C@H]1CC[C@@H](n2c(NC(=O)c3ccc(F)cc3)nc3ccc(CN4CCC(C(C)(C)O)CC4)cc32)CC1 [TSR-011, reference compound] |  |  |  |  | 32 nM | 12000 nM | 2.3 nM
